Reference: publication PMC6158189, “A pharmacological probe identifies cystathionine β-synthase as a new negative regulator for ferroptosis” (Cell Death & Disease, 2018)

Legend:
[1] = test system: H22 mouse liver tumor cells in ICR mice; conditions: 20 mg/kg/day i.v.
Procedure: Fig. 7 CH004 suppresses tumor growth in vivo. a–c CH004 reduces the growth rate of tumors in liver tumor xenograft mice model. Mice bearing liver tumor xenografts were treated with CH004 (10 mg/kg/d), cyclophophamide (CTX, 20 mg/kg/d) or PBS (Vehicle) for 21 days. The tumor volumes were measured every two days during day 6 to day 22 and the data was presented in a (n = 8). […] Mice body weight was measured along with the measurement of tumor volume (n = 8). Means ± SDS. Statistical analyses were performed on the raw data by one-way (c) or two-way ANOVA (a) with Bonferroni post-tests. The significance of the CH004-treated group compared to Vehicle was indicated with $ (a), whereas the comparison of the CTX group to Vehicle was with # (a). $, # or ***p < 0.001
The in vivo effect of CH004 on tumor growth was evaluated in a xenograft mice model of liver cancer. The experiment was independently performed by Jiangsu KeyGEN BioTECH Co. LTD (Jiangsu, China) and followed the standard procedures that were established and approved by the local Animal Care and Use Committee. Briefly, H22 mouse liver tumor cells were intraperitoneal injected into female ICR mice (SLAC Laboratory Animal Co. Ltd, Shanghai, China). 8 days later, mice with distended abdomen were killed, and the ascites was collected, washed and resuspended with PBS. 0.1 ml cell suspension with a density of 1 × 10^7/ml was subcutaneously injected into the right dorsum of ICR female mice (~20 g). The mice bearing H22 tumor cells were then randomized into groups (n = 8) on the following day after the implantation. Then, the mice were injected via a tail vein (i.v.) with PBS, CH004 (10 mg/kg) or cyclophosphamide (CTX, a known anticancer drug; 20 mg/kg) once per day and for 21 days. Tumor sizes were measured every 2 days starting from the day 6 using a caliper, and tumor volume was calculated using the formula V = length × width^2 × π / 6. The body weights of mice were recorded under the same conditions. The mice were sacrificed on day 22, and the tumors were taken out and weighted.

[2] = target: T1, hCBS-FL wild type (293T-CBS WT) (Homo sapiens, UniProt P35520); assay: H2S in HEK293T cells stably expressing hCBS WT (AzMC probe); type: cell-based; conditions: 8 h
T1 construct: human CBS or hCSE full-length (CBS-FL or CSE) was subcloned into pGEX-KG, pcDNA3 or pCDH vector; expressed in transfected cells
T1 sequence (P35520 1-551): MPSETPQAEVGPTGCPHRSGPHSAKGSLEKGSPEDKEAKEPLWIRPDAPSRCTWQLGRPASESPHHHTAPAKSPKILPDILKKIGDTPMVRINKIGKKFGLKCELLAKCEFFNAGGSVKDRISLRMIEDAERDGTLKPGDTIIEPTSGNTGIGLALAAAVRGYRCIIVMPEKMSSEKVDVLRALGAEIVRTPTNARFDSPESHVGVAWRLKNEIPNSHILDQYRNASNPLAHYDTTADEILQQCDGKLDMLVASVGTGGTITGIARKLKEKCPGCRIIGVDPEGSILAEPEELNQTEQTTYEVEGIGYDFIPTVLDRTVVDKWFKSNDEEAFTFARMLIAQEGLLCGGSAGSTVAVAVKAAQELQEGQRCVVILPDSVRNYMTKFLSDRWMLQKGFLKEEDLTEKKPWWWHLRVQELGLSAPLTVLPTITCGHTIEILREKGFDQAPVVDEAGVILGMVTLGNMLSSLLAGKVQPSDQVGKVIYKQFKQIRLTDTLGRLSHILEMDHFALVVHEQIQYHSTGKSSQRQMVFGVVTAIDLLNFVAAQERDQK
Procedure: HEK293T cells were transiently transfected with empty vector (EV, i and ii), hCBS-FL (iii and iv) or hCSE (v and vi) plasmids, followed by incubation with DMSO (i–iii and v) or 10 μM CH004 (iv and vi) for 8 h before staining with 50 μM AzMC, a H2S-specific probe (“Materials and Methods” section). For larger fluorescent and bright-field images, please see Supplementary Figure 4. The expression levels of hCBS or hCSE in HEK293T cells after transient transfections were determined by western blotting using an anti-CBS antibody (3E1, 1:2000; Abnova) or anti-CSE antibody (1:500, GeneTex). The densities of protein bands for hCBS or hCSE in the blots were quantified with the ImageJ software (National Institutes of Health, Bethesda, MD, USA) and expressed as ratios of respective control (EV group). All immunoblots are representative of at least two independent experiments using GAPDH as the loading control. The fluorescent images of the H2S (blue) were accordingly quantified (“Materials and Methods” section) with ImageJ. […] The DMSO groups of the controls (CTR), which are expressing of hCBS or hCSE, were normalized to 100% and the levels of H2S in CH004-treated or EV group are shown as relative percentages. c, d CH004 dose-dependently suppresses the activity of hCBS WT without affecting the activity of CH004-insensitive mutant. HEK293T cells stably expressing EV (i and ii), hCBS-FL wild type (293T-CBS WT; iii–v) or CBS-FL mutant (293T-CBS Q222A, vi–viii) were treated with DMSO (i–iii and vi), 5 μM CH004 (iv, vii) or 10 μM CH004 (v, viii) for 8 h before staining with the AzMC. For larger fluorescent and bright-field images, please see Supplementary Figures 5–6. […] The DMSO groups of the controls (CTR), which are expressing of hCBS-FL wt or Q222A mutant, were normalized to 100% and the levels of H2S in CH004-treated or EV group are shown as relative percentages. A representative fluorescence image from three independent experiments is shown. Means ± SDS (n = 3). Statistical analyses were performed on the raw data for each group by one-way (b) or two-way (d) ANOVA with Bonferroni post-tests. ***p < 0.001. Bars, 50 μm
H2S levels in living cells were detected using a H2S-specific fluorescent probe according to a protocol described previously[31],[55]. To measure H2S in transiently transfected HEK293T cells, the cells were seeded on poly-D-Lys-coated coverslips (Thermo Scientific, Waltham, MA, USA) in 12-well plates at a density of ~ 1 × 10^5 cells per well, and hCBS or hCSE plasmids were transiently transfected by X-tremeGENE HP DNA Transfection Reagent according to the manufacturer’s protocol (Roche, Basel, Switzerland). […] After incubation with 50 μM AzMC at 37 °C for 30 min, the cells were washed 4 times with PBS, and the fluorescent images were recorded with excitation by 405 nm laser by using a A1Si (Nikon) confocal microscope. The intensity of the blue fluorescent signals, indicating the amount of H2S, was quantified by ImageJ software (NIH, Bethesda, ML). The H2S signal was then corrected for the background signal detected in HEK293T cells transiently or stably expressing of empty vector (HEK293T-EV) and normalized by the corresponding cell-occupying area and compared with the control (DMSO group, 100%). Similarly, the H2S signal in HepG2 cells was quantified by AzMC staining, corrected for the background signal outside the cells, normalized by the cell area and expressed as percentages of DMSO control (100%). […]

[3] = target: T2, endogenous hCBS in HepG2 cells (Homo sapiens, UniProt P35520); assay: endogenous H2S in HepG2 cells (AzMC probe); type: cell-based; conditions: 8 h, HepG2
T2 construct: effects of CH004 on the activity of endogenous CBS by incubating with HepG2; endogenous in cells; host or cells: HepG2
T2 sequence (P35520 1-551): T1 sequence (P35520 1-551)
Procedure: Fig. 3 The effect of CH004 on the activity of endogenous hCBS in cells. a CH004 dose-dependently elevates the levels of Hcys in HepG2 and HEK293T cells. HepG2 cells or HEK293T cells were incubated with indicated CH004 or DMSO (control) for 12 h. The amount of total Hcys in cells was measured by ELISA using Axis® Homocysteine EIA kit (IBL, AX51301) (“Materials and Methods” section). […] HepG2 cells were treated with indicated DMSO, CH004 or HA for 8 h before the staining with AzMC probe. The amount of the H2S (blue) was quantified and is shown in (c). Bars, 50 μm. Control (CTR), DMSO group (100%). A representative fluorescence image from three independent experiments is shown. Means ± SDS (n = 3). d CH004 elevates Hcys in the peripheral blood of rats. The total Hcys of the blood samples collected from the anesthetized rats at the 75 min time point (Materials and Methods) were quantified by ELISA (see above). Means ± SDS (n = 6).
H2S levels in living cells were detected using a H2S-specific fluorescent probe according to a protocol described previously[31],[55]. To measure H2S in transiently transfected HEK293T cells, the cells were seeded on poly-D-Lys-coated coverslips (Thermo Scientific, Waltham, MA, USA) in 12-well plates at a density of ~ 1 × 10^5 cells per well, and hCBS or hCSE plasmids were transiently transfected by X-tremeGENE HP DNA Transfection Reagent according to the manufacturer’s protocol (Roche, Basel, Switzerland). After 24 h, the transfected cells were treated with DMSO or inhibitors for another 8 h, followed by staining with 7-azide-4-methylcoumarin (AzMC; Sigma-Aldrich). Similarly, HEK293T cells stably expressing CBS WT, Q222A mutant or EV were seeded on poly-D-Lys-coated coverslips in 12-well plates for one day before treatment with DMSO or inhibitors for 8 h. After incubation with 50 μM AzMC at 37 °C for 30 min, the cells were washed 4 times with PBS, and the fluorescent images were recorded with excitation by 405 nm laser by using a A1Si (Nikon) confocal microscope. The intensity of the blue fluorescent signals, indicating the amount of H2S, was quantified by ImageJ software (NIH, Bethesda, ML). The H2S signal was then corrected for the background signal detected in HEK293T cells transiently or stably expressing of empty vector (HEK293T-EV) and normalized by the corresponding cell-occupying area and compared with the control (DMSO group, 100%). Similarly, the H2S signal in HepG2 cells was quantified by AzMC staining, corrected for the background signal outside the cells, normalized by the cell area and expressed as percentages of DMSO control (100%).
To elucidate the subcellular localization of H2S, HepG2 cells were seeded on poly-D-Lys-coated coverslips in 12-well plates. After treatment with DMSO or inhibitors for 8 h, cells were sequentially incubated with 200 nM Mito-Tracker® Green and 50 μM AzMC for 30 min at 37 °C in PBS, and then fluorescent images were taken using a confocal microscope.
Figure S9. The effect of AOAA on the level of endogenous H2S in HepG2 cells. […] HepG2 cells were incubated with 0 (DMSO control), 1, 5 or 10 mM AOAA for 8 h before staining with 50 μM AzMC. Upper panels, the overlaid images; middle panels, the corresponding fluorescent images (blue, H2S); the lower panels, the bright-field images. Bars: 50 μm. (B) Quantification of the mean fluorescent density of H2S (blue). The intensity of H2S was accordingly quantified and normalized by correcting for the background signal outside cells. Data was expressed as percentages of the control (DMSO group, 100%). Means ± SDs (n=3). One-way ANOVA with Bonferroni post-tests was used for the analysis. *, p< 0.05; ***, p< 0.001; n.s. no significance. The images are one representative from three independent experiments.

Structure (SMILES)	reduction of tumor volume or weight ([1]; 21-day treatment)	effect on total body weight ([1]; 21 days)	effect on production of H2S ([2]; 1 mM, HEK293T stably expressing hCBS)	decrease in cellular H2S ([2]; 10 mM, HEK293T stably expressing hCBS)	H2S production ([2]; 1, 5 or 10 mM, 293T-CBS WT)	effect on production of H2S ([3]; 1 mM)	decrease in cellular H2S ([3]; 10 mM)	production of endogenous H2S ([3]; 1, 5 or 10 mM)
O=P1(N(CCCl)CCCl)NCCCO1 (centres unmarked) [CTX, cyclophosphamide, reference compound]	more than half	did not substantially affect						
NOCC(=O)O [AOAA, aminooxyacetic acid, reference compound]			cannot suppress	≤ 30%	weakly inhibits	cannot suppress	≤ 30%	impotently decreases
